Experimental findings from paper PMC6309945 (The FEBS journal, 2018) are described below.

The test system of data set [1] is human foreskin fibroblasts (HFF). Nature of the data set: MTT cytotoxicity assay. Type of data set: cell-based. In general terms: Formazan colour is commonly taken as a measure of viable cells.
Data set [2] concerns the target plasmepsin II (PMII) (Plasmodium falciparum, UniProt P46925). The data set can be described thus: Fluorogenic substrate inhibition assay of mature soluble recombinant PMII. It is filed as biochemical.

Non-standard residues stand in square brackets, D forms with d. Residues, ends and D or L forms follow the SMILES beside them. *: point of attachment. Sta = CC(C)C[C@H](N)[C@@H](O)CC(=O)O; Isovaleryl = CC(C)CC(=O)*

Chain of plasmepsin II (PMII) (P46925 125-453): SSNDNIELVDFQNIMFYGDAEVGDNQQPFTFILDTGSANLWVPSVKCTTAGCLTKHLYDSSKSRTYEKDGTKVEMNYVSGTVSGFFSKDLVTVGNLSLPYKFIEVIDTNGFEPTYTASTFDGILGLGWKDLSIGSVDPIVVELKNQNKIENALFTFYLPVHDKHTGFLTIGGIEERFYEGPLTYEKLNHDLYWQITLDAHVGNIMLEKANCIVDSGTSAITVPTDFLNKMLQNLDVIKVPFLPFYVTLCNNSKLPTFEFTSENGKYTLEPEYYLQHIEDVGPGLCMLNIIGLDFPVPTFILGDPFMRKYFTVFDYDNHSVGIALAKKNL

Turning to `Cc1cc(N(C)CCN(C)C)cc(C)c1OCC(=O)N[C@@H](Cc1ccccc1)[C@H](O)C(=O)N1CSC(C)(C)[C@H]1C(=O)N[C@H]1c2ccccc2C[C@H]1O` [KNI-10743], the “Cytotoxicity (cell viability, MTT)” value in data set [1] (highest concentration tested 25 µM, continuous exposure for 2 consecutive days) was “no significant cytotoxicity”. Besides, in data set [1] (light microscopy, compared to cisplatin-treated cells), the Morphology of cells entry is listed as “remains intact”.
In the case of `CC(C)CC(=O)N[C@H](C(=O)N[C@H](C(=O)N[C@@H](CC(C)C)[C@@H](O)CC(=O)N[C@@H](C)C(=O)N[C@@H](CC(C)C)[C@@H](O)CC(=O)O)C(C)C)C(C)C` [Pepstatin A] (Isovaleryl-VV[Sta]A[Sta]-OH), the Ki in data set [2] turned out to be 0.07 nM.
